From patent US11623944B2, “Paenibacillus strain, antifungal compounds, and methods for their use” (Bayer CropScience LP, priority 2015, dated 2023)

Test system: Paenibacillus sp. strain NRRL B-50972
Assay: Antibiotic sensitivity on sLB agar
Format: cell-based
Details: growth after 24, 48, 72 hours at 30° C.

| Compound | Sensitive/Resistant (antibiotic 10 μg/mL) | Sensitive/Resistant (antibiotic 25 μg/mL) |
| --- | --- | --- |
| Polymyxin B | Resistant | – |
| CCn1cc(C(=O)O)c(=O)c2ccc(C)nc21 [Nalidixic acid] | – | Sensitive |
